Data published in patent US20120010075A1 (priority 2009, published 2012).
Where two headings read alike, the source gives them in different places.

How the values were obtained:
[1] = tested on: Leptosphaeria nodorum (LEPTNO); assay: In vitro fungitoxicity of hydrazones with and without copper towards Leptosphaeria nodorum (Example 26); assay type: cell-based; conditions: 72 h at 25° C.; for inhibition of growth at 0.05 µg/mL: Parastagonospora nodorum, 72 h, copper-minus medium, read-out: LEPTNO % Inhn. Minus Copper Observed
[2] = tested on: Phytophthora infestans; assay type: in vivo, Phytophthora infestans on tomato; conditions: applied 24 h before inoculation, assessed 7 days after inoculation
[3] = test compound Concn. 0.05 μg/mL
[4] = copper-plus medium (CuCl2 10 μM), test compound Concn. 0.05 μg/mL
[5] = hydrazone 50 ppm with 50 μM CuCl2.2H2O, tomato late blight
[6] = compound 0.05 μg/mL, copper-plus medium (CuCl2.2H2O)
[7] = hydrazone 50 ppm + 50 μM CuCl2.2H2O, tomato

SMILES	inhibition of growth at 0.05 µg/mL [1, 3] [%]	LEPTNO % Inhn. Plus Copper Observed [1, 4] [%]	TLB % Control [2, 5] [%]	melting point [°C]	inhibition of growth at 0.05 µg/mL ([1]; compound 0.05 μg/mL) [%]	LEPTNO % Inhn. Plus Copper Observed [1, 6] [%]	TLB % Control [2, 7] [%]
C/C(=N\NC(=O)c1ccc(C(F)(F)F)cc1)c1cc(Cl)ccc1O [Example 513]	14	98.0	53.0	271 to 273			
O=C(N/N=C/c1c(C(F)(F)F)ccc(Cl)c1O)c1ccc([N+](=O)[O-])cc1 [Example 454]	12.4	100.0	100.0	305 to 307			
C/C(=N\NC(=O)c1ccccc1O)c1cc(Cl)cc(Cl)c1O [Example 471]	7.9	97.8	83.0	306 to 308			
Cc1cccc(C(=O)N/N=C/c2c(Cl)ccc(Cl)c2O)c1 [Example 365]	13.8	95.6	95.0	214 to 216			
Cc1cccc(O)c1/C=N/NC(=O)c1ccccc1 [Example 246]				212 to 213	0	95.3	50.9
COc1cccc(C(=O)N/N=C(\C)c2cc(Cl)cc(Cl)c2O)c1O [Example 484]	12.6	93.2	88.0	258 to 259			
C/C(=N\NC(=O)c1ccccc1)c1cc(C)ccc1O [Example 311]	3.3	98.3	37.0	197 to 199			
O=C(N/N=C/c1cc(Cl)cc(Cl)c1O)c1cc(Br)ccc1Cl [Example 98]				191 to 192	16.8	98.1	79.7
COc1ccc(/C(C)=N/NC(=O)c2ccccc2Br)c(O)c1OC [Example 561]	0	92.2	60.0	195 to 200			
O=C(N/N=C/c1cc(Cl)cc(Cl)c1O)c1cc2ccccc2cc1O [Example 563]	20.6	96.9	70.0	287 to 292			
O=C(N/N=C/c1cccc(C(F)(F)F)c1O)c1cccc([N+](=O)[O-])c1 [Example 349]	17.4	96.9	97.0	215 to 217			
O=C(N/N=C/c1cc(Cl)cc(C(F)(F)F)c1O)c1cccc([N+](=O)[O-])c1 [Example 382]	19.3	98.5	96.0	235 to 237			
CC/C(=N\NC(=O)c1ccccc1)c1cc(Cl)cc(Cl)c1O [Example 590]	10	98.6	88.0	214 to 215			
COc1cc(O)c(/C(C)=N/NC(=O)c2ccc(Br)cc2)c(OC)c1 [Example 570]	3.2	97.2	39.0	134 to 159			
Cc1cccc(C(=O)N/N=C/c2ccc(Cl)c(Cl)c2O)c1 [Example 354]	18.4	95.4	98.0	212 to 214			
C/C(=N\NC(=O)c1ccccc1C)c1cc(C)ccc1O [Example 312]	3.8	97.8	1.4	154 to 156			
C/C(=N\NC(=O)c1ccc(Cl)cc1)c1cccc(Cl)c1O [Example 498]	0	97.5	85.0	208 to 209			
O=C(N/N=C/c1cc(C(F)(F)F)cc(C(F)(F)F)c1O)c1ccccc1 [Example 295]				232 to 234	5.8	98.0	89.8
COc1ccc(C(=O)N/N=C(\C)c2c(O)cc(OC)cc2OC)cc1 [Example 569]	6.1	15.8	70.0	143 to 146			
O=C(N/N=C/c1cc(C(F)(F)F)cc(C(F)(F)F)c1O)c1cccc(F)c1 [Example 334]	10.9	97.8	98.0	240 to 242			
